In publication PMC12310023 (PLOS Neglected Tropical Diseases, 2025):

Test system: NLuc-expressing C. parvum
Assay: NLuc C. parvum IFNγ-KO mouse infection model, oocyst shedding
Assay type: in vivo

Question: For `CC(C)(CO)Cn1nc(-c2ccc3cc(OC4CC4)ccc3c2)c(C(N)=O)c1N` [compound 1708], which “RLU standardized by fecal weight” value (15 mg/kg x 3 days, group I, day 6 p.i., Cp Mouse Efficacy 2) is on record?
Answer: 251957 RLU

Question: And the “RLU standardized by fecal weight” value (15 mg/kg x 3 days, group I, day 7 p.i., Cp Mouse Efficacy 2)?
Answer: 85920 RLU

Question: What about the “RLU standardized by fecal weight” value (15 mg/kg x 3 days, group I, day 8 p.i., Cp Mouse Efficacy 2) of the same molecule?
Answer: 79354 RLU

Question: What about the “RLU standardized by fecal weight” value (15 mg/kg x 3 days, group I, day 9 p.i., Cp Mouse Efficacy 2) of the same molecule?
Answer: 5065 RLU

Question: What about the “RLU standardized by fecal weight” value (15 mg/kg x 3 days, group I, day 10 p.i., Cp Mouse Efficacy 2) of the same molecule?
Answer: 1311 RLU

Question: And the “RLU standardized by fecal weight” value (15 mg/kg x 3 days, group I, day 13 p.i., Cp Mouse Efficacy 2)?
Answer: 474 RLU

Question: And the “RLU standardized by fecal weight” value (15 mg/kg x 3 days, group I, day 15 p.i., Cp Mouse Efficacy 2)?
Answer: 57 RLU

Question: What about the “RLU standardized by fecal weight” value (15 mg/kg x 3 days, group I, day 17 p.i., Cp Mouse Efficacy 2) of the same molecule?
Answer: 57 RLU

Question: What about the “RLU standardized by fecal weight” value (15 mg/kg x 3 days, group I, day 20 p.i., Cp Mouse Efficacy 2) of the same molecule?
Answer: 227 RLU

Question: And the “RLU Raw” value (30 mg/kg QD x3, group G, Day 6, Cp Mouse Efficacy 1)?
Answer: 1295216 RLU

Question: And the “RLU Raw” value (30 mg/kg QD x3, group G, Day 7, Cp Mouse Efficacy 1)?
Answer: 1222624 RLU

Question: And the “RLU Raw” value (30 mg/kg QD x3, group G, Day 8, Cp Mouse Efficacy 1)?
Answer: 619376 RLU

Question: And the “RLU Raw” value (30 mg/kg QD x3, group G, Day 9, Cp Mouse Efficacy 1)?
Answer: 66208 RLU

Question: What about the “RLU Raw” value (30 mg/kg QD x3, group G, Day 10, Cp Mouse Efficacy 1) of the same molecule?
Answer: 17152 RLU

Question: What about the “RLU Raw” value (30 mg/kg QD x3, group G, Day 13, Cp Mouse Efficacy 1) of the same molecule?
Answer: 2912 RLU

Question: And the “RLU Raw” value (30 mg/kg QD x3, group G, Day 15, Cp Mouse Efficacy 1)?
Answer: 4896 RLU

Question: What about the “RLU Raw” value (30 mg/kg QD x3, group G, Day 17, Cp Mouse Efficacy 1) of the same molecule?
Answer: 1792 RLU

Question: And the “RLU Raw” value (30 mg/kg QD x3, group G, Day 20, Cp Mouse Efficacy 1)?
Answer: 7008 RLU

Question: And the “RLU standardized by fecal weight” value (30 mg/kg QD x3, group G, day 6 p.i., Cp Mouse Efficacy 1)?
Answer: 182425 RLU

Question: What about the “RLU standardized by fecal weight” value (30 mg/kg QD x3, group G, day 7 p.i., Cp Mouse Efficacy 1) of the same molecule?
Answer: 166343 RLU

Question: What about the “RLU standardized by fecal weight” value (30 mg/kg QD x3, group G, day 8 p.i., Cp Mouse Efficacy 1) of the same molecule?
Answer: 154844 RLU

Question: And the “RLU standardized by fecal weight” value (30 mg/kg QD x3, group G, day 9 p.i., Cp Mouse Efficacy 1)?
Answer: 14087 RLU

Question: What about the “RLU standardized by fecal weight” value (30 mg/kg QD x3, group G, day 10 p.i., Cp Mouse Efficacy 1) of the same molecule?
Answer: 2907 RLU

Question: What about the “RLU standardized by fecal weight” value (30 mg/kg QD x3, group G, day 13 p.i., Cp Mouse Efficacy 1) of the same molecule?
Answer: 391 RLU

Question: What about the “RLU standardized by fecal weight” value (30 mg/kg QD x3, group G, day 15 p.i., Cp Mouse Efficacy 1) of the same molecule?
Answer: 401 RLU

Question: What about the “RLU standardized by fecal weight” value (30 mg/kg QD x3, group G, day 17 p.i., Cp Mouse Efficacy 1) of the same molecule?
Answer: 224 RLU

Question: What about the “RLU standardized by fecal weight” value (30 mg/kg QD x3, group G, day 20 p.i., Cp Mouse Efficacy 1) of the same molecule?
Answer: 904 RLU

Question: What about the “RLU Raw” value (30 mg/kg x 1 days, group F, Day 6, Cp Mouse Efficacy 2) of the same molecule?
Answer: 255712 RLU

Question: What about the “RLU Raw” value (30 mg/kg x 1 days, group F, Day 7, Cp Mouse Efficacy 2) of the same molecule?
Answer: 157696 RLU

Question: What about the “RLU Raw” value (30 mg/kg x 1 days, group F, Day 8, Cp Mouse Efficacy 2) of the same molecule?
Answer: 335600 RLU

Question: And the “RLU Raw” value (30 mg/kg x 1 days, group F, Day 9, Cp Mouse Efficacy 2)?
Answer: 101760 RLU

Question: And the “RLU Raw” value (30 mg/kg x 1 days, group F, Day 10, Cp Mouse Efficacy 2)?
Answer: 181040 RLU

Question: What about the “RLU Raw” value (30 mg/kg x 1 days, group F, Day 13, Cp Mouse Efficacy 2) of the same molecule?
Answer: 15056 RLU

Question: What about the “RLU Raw” value (30 mg/kg x 1 days, group F, Day 15, Cp Mouse Efficacy 2) of the same molecule?
Answer: 22080 RLU

Question: And the “RLU Raw” value (30 mg/kg x 1 days, group F, Day 17, Cp Mouse Efficacy 2)?
Answer: 4144 RLU

Question: And the “RLU Raw” value (30 mg/kg x 1 days, group F, Day 20, Cp Mouse Efficacy 2)?
Answer: 2768 RLU

Question: What about the “RLU standardized by fecal weight” value (30 mg/kg x 1 days, group F, day 6 p.i., Cp Mouse Efficacy 2) of the same molecule?
Answer: 39645 RLU

Question: What about the “RLU standardized by fecal weight” value (30 mg/kg x 1 days, group F, day 7 p.i., Cp Mouse Efficacy 2) of the same molecule?
Answer: 24640 RLU

Question: What about the “RLU standardized by fecal weight” value (30 mg/kg x 1 days, group F, day 8 p.i., Cp Mouse Efficacy 2) of the same molecule?
Answer: 55471 RLU

Question: What about the “RLU standardized by fecal weight” value (30 mg/kg x 1 days, group F, day 9 p.i., Cp Mouse Efficacy 2) of the same molecule?
Answer: 16820 RLU

Question: And the “RLU standardized by fecal weight” value (30 mg/kg x 1 days, group F, day 10 p.i., Cp Mouse Efficacy 2)?
Answer: 20342 RLU

Question: And the “RLU standardized by fecal weight” value (30 mg/kg x 1 days, group F, day 13 p.i., Cp Mouse Efficacy 2)?
Answer: 2841 RLU

Question: What about the “RLU standardized by fecal weight” value (30 mg/kg x 1 days, group F, day 15 p.i., Cp Mouse Efficacy 2) of the same molecule?
Answer: 3046 RLU

Question: What about the “RLU standardized by fecal weight” value (30 mg/kg x 1 days, group F, day 17 p.i., Cp Mouse Efficacy 2) of the same molecule?
Answer: 975 RLU

Question: And the “RLU standardized by fecal weight” value (30 mg/kg x 1 days, group F, day 20 p.i., Cp Mouse Efficacy 2)?
Answer: 410 RLU

Question: What about the “RLU Raw” value (60 mg/kg QD x3, group F, Day 6, Cp Mouse Efficacy 1) of the same molecule?
Answer: 2614768 RLU

Question: What about the “RLU Raw” value (60 mg/kg QD x3, group F, Day 7, Cp Mouse Efficacy 1) of the same molecule?
Answer: 2391472 RLU

Question: What about the “RLU Raw” value (60 mg/kg QD x3, group F, Day 8, Cp Mouse Efficacy 1) of the same molecule?
Answer: 411984 RLU

Question: And the “RLU Raw” value (60 mg/kg QD x3, group F, Day 9, Cp Mouse Efficacy 1)?
Answer: 18336 RLU

Question: And the “RLU Raw” value (60 mg/kg QD x3, group F, Day 10, Cp Mouse Efficacy 1)?
Answer: 2272 RLU

Question: What about the “RLU Raw” value (60 mg/kg QD x3, group F, Day 13, Cp Mouse Efficacy 1) of the same molecule?
Answer: 576 RLU

Question: What about the “RLU Raw” value (60 mg/kg QD x3, group F, Day 15, Cp Mouse Efficacy 1) of the same molecule?
Answer: 304 RLU

Question: What about the “RLU Raw” value (60 mg/kg QD x3, group F, Day 17, Cp Mouse Efficacy 1) of the same molecule?
Answer: 144 RLU

Question: And the “RLU Raw” value (60 mg/kg QD x3, group F, Day 20, Cp Mouse Efficacy 1)?
Answer: 224 RLU

Question: What about the “RLU standardized by fecal weight” value (60 mg/kg QD x3, group F, day 6 p.i., Cp Mouse Efficacy 1) of the same molecule?
Answer: 261477 RLU

Question: And the “RLU standardized by fecal weight” value (60 mg/kg QD x3, group F, day 7 p.i., Cp Mouse Efficacy 1)?
Answer: 201812 RLU

Question: What about the “RLU standardized by fecal weight” value (60 mg/kg QD x3, group F, day 8 p.i., Cp Mouse Efficacy 1) of the same molecule?
Answer: 45026 RLU

Question: And the “RLU standardized by fecal weight” value (60 mg/kg QD x3, group F, day 9 p.i., Cp Mouse Efficacy 1)?
Answer: 3245 RLU

Question: What about the “RLU standardized by fecal weight” value (60 mg/kg QD x3, group F, day 10 p.i., Cp Mouse Efficacy 1) of the same molecule?
Answer: 215 RLU

Question: And the “RLU standardized by fecal weight” value (60 mg/kg QD x3, group F, day 13 p.i., Cp Mouse Efficacy 1)?
Answer: 93 RLU

Question: What about the “RLU standardized by fecal weight” value (60 mg/kg QD x3, group F, day 15 p.i., Cp Mouse Efficacy 1) of the same molecule?
Answer: 78 RLU

Question: And the “RLU standardized by fecal weight” value (60 mg/kg QD x3, group F, day 17 p.i., Cp Mouse Efficacy 1)?
Answer: 33 RLU

Question: And the “RLU standardized by fecal weight” value (60 mg/kg QD x3, group F, day 20 p.i., Cp Mouse Efficacy 1)?
Answer: 67 RLU

Question: What about the “RLU Raw” value (60 mg/kg x 1 day, group E, Day 6, Cp Mouse Efficacy 2) of the same molecule?
Answer: 814080 RLU

Question: What about the “RLU Raw” value (60 mg/kg x 1 day, group E, Day 7, Cp Mouse Efficacy 2) of the same molecule?
Answer: 339152 RLU

Question: And the “RLU Raw” value (60 mg/kg x 1 day, group E, Day 8, Cp Mouse Efficacy 2)?
Answer: 54176 RLU

Question: And the “RLU Raw” value (60 mg/kg x 1 day, group E, Day 9, Cp Mouse Efficacy 2)?
Answer: 52848 RLU

Question: What about the “RLU Raw” value (60 mg/kg x 1 day, group E, Day 10, Cp Mouse Efficacy 2) of the same molecule?
Answer: 91232 RLU

Question: And the “RLU Raw” value (60 mg/kg x 1 day, group E, Day 13, Cp Mouse Efficacy 2)?
Answer: 5456 RLU

Question: And the “RLU Raw” value (60 mg/kg x 1 day, group E, Day 15, Cp Mouse Efficacy 2)?
Answer: 4592 RLU

Question: What about the “RLU Raw” value (60 mg/kg x 1 day, group E, Day 17, Cp Mouse Efficacy 2) of the same molecule?
Answer: 5520 RLU

Question: What about the “RLU Raw” value (60 mg/kg x 1 day, group E, Day 20, Cp Mouse Efficacy 2) of the same molecule?
Answer: 2336 RLU

Question: What about the “RLU standardized by fecal weight” value (60 mg/kg x 1 day, group E, day 6 p.i., Cp Mouse Efficacy 2) of the same molecule?
Answer: 144085 RLU

Question: What about the “RLU standardized by fecal weight” value (60 mg/kg x 1 day, group E, day 7 p.i., Cp Mouse Efficacy 2) of the same molecule?
Answer: 44625 RLU

Question: What about the “RLU standardized by fecal weight” value (60 mg/kg x 1 day, group E, day 8 p.i., Cp Mouse Efficacy 2) of the same molecule?
Answer: 11405 RLU

Question: What about the “RLU standardized by fecal weight” value (60 mg/kg x 1 day, group E, day 9 p.i., Cp Mouse Efficacy 2) of the same molecule?
Answer: 12435 RLU

Question: And the “RLU standardized by fecal weight” value (60 mg/kg x 1 day, group E, day 10 p.i., Cp Mouse Efficacy 2)?
Answer: 12329 RLU

Question: What about the “RLU standardized by fecal weight” value (60 mg/kg x 1 day, group E, day 13 p.i., Cp Mouse Efficacy 2) of the same molecule?
Answer: 774 RLU

Question: And the “RLU standardized by fecal weight” value (60 mg/kg x 1 day, group E, day 15 p.i., Cp Mouse Efficacy 2)?
Answer: 399 RLU

Question: What about the “RLU standardized by fecal weight” value (60 mg/kg x 1 day, group E, day 17 p.i., Cp Mouse Efficacy 2) of the same molecule?
Answer: 726 RLU

Question: And the “RLU standardized by fecal weight” value (60 mg/kg x 1 day, group E, day 20 p.i., Cp Mouse Efficacy 2)?
Answer: 525 RLU
